Reference: patent publication US20080009418A1, “Selective Inhibitors” (Alchemia LTD., priority 2004, published 2008)

Tests used:
[1] = target: T1, Human δ-opioid (DOP) (Homo sapiens, UniProt P41143); assay: Radioligand binding, human δ-opioid (DOP) membranes, FlashPlate, [3H]-Bremazocine; details: compound at 10 μM, [3H]-Bremazocine; for A1: inhibition of radioligand binding: human DOP membranes
T1 construct: purchased Perkin Elmer Biosignal
In short: (§1)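 Cloned human receptor membranes were coated onto FlashPlate wells and incubated with radioligand and compound (added from a 0.5 mM DMSO daughter plate) for 1 hour at room temperature in the dark. Scintillation counting gave percent inhibition, with DMSO defining total and reference ligand defining non-specific binding.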

[2] = target: T2, Human melanocortin (MC5) (Homo sapiens, UniProt P33032); assay: Radioligand binding, human melanocortin MC5 membranes, FlashPlate, [125I]-NDP-αMSH; details: compound at 10 μM, [125I]-NDP-αMSH; for A5: inhibition of radioligand binding: human MC5 membranes
T2 construct: purchased Perkin Elmer Biosignal
T2 sequence (P33032 whole entry): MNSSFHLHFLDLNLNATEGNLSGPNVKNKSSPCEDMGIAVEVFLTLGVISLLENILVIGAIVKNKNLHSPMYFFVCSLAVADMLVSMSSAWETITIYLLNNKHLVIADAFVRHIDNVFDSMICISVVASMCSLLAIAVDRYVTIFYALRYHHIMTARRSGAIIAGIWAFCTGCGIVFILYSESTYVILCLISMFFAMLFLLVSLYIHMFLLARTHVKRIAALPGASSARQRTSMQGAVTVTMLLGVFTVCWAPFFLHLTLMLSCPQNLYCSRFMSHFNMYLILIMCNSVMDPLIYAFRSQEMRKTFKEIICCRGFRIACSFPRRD
In short: as §1

[3] = target: T3, Human Melanocortin (MC3) (Homo sapiens, UniProt P41968); assay: Radioligand binding, human melanocortin MC3 membranes, FlashPlate, [125I]-NDP-αMSH; details: compound at 10 μM, [125I]-NDP-αMSH; for A3: inhibition of radioligand binding: human MC3 membranes
T3 construct: purchased Perkin Elmer Biosignal
T3 sequence (P41968 whole entry): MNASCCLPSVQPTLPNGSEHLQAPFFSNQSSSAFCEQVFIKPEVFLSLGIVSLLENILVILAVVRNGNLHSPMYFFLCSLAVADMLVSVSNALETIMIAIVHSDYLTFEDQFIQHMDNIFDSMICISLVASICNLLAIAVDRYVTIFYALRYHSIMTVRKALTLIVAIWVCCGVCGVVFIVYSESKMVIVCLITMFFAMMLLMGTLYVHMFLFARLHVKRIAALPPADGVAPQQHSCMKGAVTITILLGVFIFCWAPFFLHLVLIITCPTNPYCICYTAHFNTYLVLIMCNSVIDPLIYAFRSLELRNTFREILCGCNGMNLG
In short: as §1

[4] = target: T4, Human opioid (ORL1) (Homo sapiens, UniProt P41146); assay: Radioligand binding, human opioid ORL1 membranes, FlashPlate, [125I]-Nociceptin; details: compound at 10 μM, [125I]-Nociceptin; for A10: inhibition of radioligand binding: human ORL1 membranes
T4 construct: purchased Perkin Elmer Biosignal
T4 sequence (P41146 whole entry): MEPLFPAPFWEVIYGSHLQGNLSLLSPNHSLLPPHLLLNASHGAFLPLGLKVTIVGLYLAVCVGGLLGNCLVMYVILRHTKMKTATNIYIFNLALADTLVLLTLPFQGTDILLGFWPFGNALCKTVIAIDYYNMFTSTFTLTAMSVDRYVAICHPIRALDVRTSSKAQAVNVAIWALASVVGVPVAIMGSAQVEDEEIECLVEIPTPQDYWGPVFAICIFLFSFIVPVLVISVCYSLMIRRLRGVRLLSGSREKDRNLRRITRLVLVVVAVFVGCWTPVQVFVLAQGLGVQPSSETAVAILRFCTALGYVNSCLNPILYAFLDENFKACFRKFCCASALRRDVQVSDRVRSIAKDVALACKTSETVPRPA
In short: as §1

[5] = target: T5, Human κ-Opioid (KOP) (Homo sapiens, UniProt P41145); assay: Radioligand binding, human κ-opioid (KOP) membranes, filtration, [3H]-Diprenorphine; details: compound at 10 μM, [3H]-Diprenorphine; for A2: inhibition of radioligand binding: human KOP membranes
T5 construct: purchased Perkin Elmer Biosignal
T5 sequence (P41145 whole entry): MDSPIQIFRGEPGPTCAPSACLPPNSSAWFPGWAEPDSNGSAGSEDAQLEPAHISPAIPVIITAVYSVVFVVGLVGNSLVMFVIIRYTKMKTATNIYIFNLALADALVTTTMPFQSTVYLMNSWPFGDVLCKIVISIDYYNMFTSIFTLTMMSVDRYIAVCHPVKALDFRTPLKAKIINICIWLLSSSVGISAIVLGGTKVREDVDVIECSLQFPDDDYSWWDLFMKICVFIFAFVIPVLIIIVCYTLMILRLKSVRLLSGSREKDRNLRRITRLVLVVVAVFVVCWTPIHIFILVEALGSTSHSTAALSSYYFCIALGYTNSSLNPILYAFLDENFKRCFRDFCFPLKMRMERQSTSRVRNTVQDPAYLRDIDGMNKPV
In short: (§2)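 Filtration binding on cloned human receptor membranes (1 Unit/well), [125I]-Substance P for NK1 and [3H]-Diprenorphine for KOP, 1 h at room temperature. Filters PEI-presoaked, washed with cold 50 mM Tris-HCl pH 7.4, counted by scintillation; percent inhibition calculated, reference ligand defining non-specific binding.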

[6] = target: T6, Mouse urotensin (mUR2) (Mus musculus, UniProt Q8VIH9); assay: Radioligand binding, mouse urotensin mUR2 membranes, FlashPlate, [125I]-Urotensin II; details: compound at 10 μM, [125I]-Urotensin II; for A11: inhibition of radioligand binding: mouse mUR2 membranes
T6 construct: purchased Perkin Elmer Biosignal
T6 sequence (Q8VIH9 1-385): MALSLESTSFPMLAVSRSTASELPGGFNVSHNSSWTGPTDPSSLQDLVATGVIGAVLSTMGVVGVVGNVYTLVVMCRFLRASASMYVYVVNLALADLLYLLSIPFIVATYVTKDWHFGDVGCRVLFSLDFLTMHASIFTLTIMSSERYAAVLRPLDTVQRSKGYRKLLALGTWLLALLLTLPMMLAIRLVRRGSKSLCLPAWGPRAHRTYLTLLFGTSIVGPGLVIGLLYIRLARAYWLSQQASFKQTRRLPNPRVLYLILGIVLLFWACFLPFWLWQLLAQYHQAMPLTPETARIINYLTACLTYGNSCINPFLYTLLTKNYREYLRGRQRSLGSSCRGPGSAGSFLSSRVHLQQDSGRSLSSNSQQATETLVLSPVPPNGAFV
In short: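 Cloned mouse urotensin (mUR2) receptor membranes from Perkin Elmer Biosignal were immobilized in FlashPlate microplates using a proprietary coating. Each well got 19.5 μl buffer, then 0.5 μl of DMSO, reference ligand, or compound. Adding 5 μl of [125I]-Urotensin II, diluted to 5× final concentration in binding buffer, started binding. Plates were sealed with TopSeal-A and incubated 1 hour at room temperature in the dark. Wells were counted for 30 seconds each on a TopCount after a 60-second delay, and percentage inhibition was calculated.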

[7] = target: T7, Human melanin-concentrating hormone (MCH1) (Homo sapiens, UniProt Q99705); assay: Radioligand binding, human melanin-concentrating hormone MCH1 membranes, FlashPlate, [125I]-S36057; details: compound at 10 μM; for A6: inhibition of radioligand binding: [125I]-S36057, human MCH1 membranes
T7 construct: purchased Perkin Elmer Biosignal
T7 sequence (Q99705 whole entry): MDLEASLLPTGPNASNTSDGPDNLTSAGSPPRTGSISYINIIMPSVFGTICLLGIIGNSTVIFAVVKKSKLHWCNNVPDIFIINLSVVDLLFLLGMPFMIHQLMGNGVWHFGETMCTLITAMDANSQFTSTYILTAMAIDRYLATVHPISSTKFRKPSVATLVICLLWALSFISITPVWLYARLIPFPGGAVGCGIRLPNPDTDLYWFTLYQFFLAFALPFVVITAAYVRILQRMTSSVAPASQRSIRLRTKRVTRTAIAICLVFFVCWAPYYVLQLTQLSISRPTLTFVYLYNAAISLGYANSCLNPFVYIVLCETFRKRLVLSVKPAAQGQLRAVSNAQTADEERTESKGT
In short: as §1

[8] = target: T8, Human Melanocortin (MC4) (Homo sapiens, UniProt P32245); assay: Radioligand binding, human melanocortin MC4 membranes, FlashPlate, [125I]-NDP-αMSH; details: compound at 10 μM, [125I]-NDP-αMSH; for A4: inhibition of radioligand binding: human MC4 membranes
T8 construct: purchased Perkin Elmer Biosignal
T8 sequence (P32245 whole entry): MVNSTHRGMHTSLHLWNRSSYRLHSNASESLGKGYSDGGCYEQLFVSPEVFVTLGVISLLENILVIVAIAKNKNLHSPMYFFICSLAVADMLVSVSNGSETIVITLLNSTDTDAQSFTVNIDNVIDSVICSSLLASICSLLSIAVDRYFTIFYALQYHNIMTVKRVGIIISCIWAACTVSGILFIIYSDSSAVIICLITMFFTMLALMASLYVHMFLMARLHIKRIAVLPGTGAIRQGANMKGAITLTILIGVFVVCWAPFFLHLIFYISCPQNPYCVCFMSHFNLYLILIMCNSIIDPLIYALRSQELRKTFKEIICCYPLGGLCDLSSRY
In short: as §1

[9] = target: T9, Human μ-opioid (MOP) (Homo sapiens, UniProt P35372); assay: Radioligand binding, human μ-opioid (MOP) membranes, FlashPlate, [3H]-Naloxone; details: compound at 10 μM, [3H]-Naloxone; for A7: inhibition of radioligand binding: human MOP membranes
T9 construct: purchased Perkin Elmer Biosignal
T9 sequence (P35372 whole entry): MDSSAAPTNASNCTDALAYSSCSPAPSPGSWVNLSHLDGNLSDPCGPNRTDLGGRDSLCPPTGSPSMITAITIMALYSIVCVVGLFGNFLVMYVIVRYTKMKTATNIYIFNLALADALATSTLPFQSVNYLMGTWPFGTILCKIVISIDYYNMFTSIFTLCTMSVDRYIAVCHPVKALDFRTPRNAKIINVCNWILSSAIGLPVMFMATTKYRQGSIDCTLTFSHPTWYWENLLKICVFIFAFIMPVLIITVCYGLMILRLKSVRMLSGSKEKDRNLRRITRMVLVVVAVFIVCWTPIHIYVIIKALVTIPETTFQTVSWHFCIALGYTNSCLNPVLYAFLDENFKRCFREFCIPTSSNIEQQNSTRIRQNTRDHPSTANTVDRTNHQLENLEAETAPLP
In short: as §1

[10] = target: T10, Human neurokinin (NK1) (Homo sapiens, UniProt P25103); assay: Radioligand binding, human neurokinin NK1 membranes, filtration, [125I]-Substance P; details: compound at 10 μM, [125I]-Substance P; for A8: inhibition of radioligand binding: human NK1 membranes
T10 construct: purchased Perkin Elmer Biosignal
T10 sequence (P25103 whole entry): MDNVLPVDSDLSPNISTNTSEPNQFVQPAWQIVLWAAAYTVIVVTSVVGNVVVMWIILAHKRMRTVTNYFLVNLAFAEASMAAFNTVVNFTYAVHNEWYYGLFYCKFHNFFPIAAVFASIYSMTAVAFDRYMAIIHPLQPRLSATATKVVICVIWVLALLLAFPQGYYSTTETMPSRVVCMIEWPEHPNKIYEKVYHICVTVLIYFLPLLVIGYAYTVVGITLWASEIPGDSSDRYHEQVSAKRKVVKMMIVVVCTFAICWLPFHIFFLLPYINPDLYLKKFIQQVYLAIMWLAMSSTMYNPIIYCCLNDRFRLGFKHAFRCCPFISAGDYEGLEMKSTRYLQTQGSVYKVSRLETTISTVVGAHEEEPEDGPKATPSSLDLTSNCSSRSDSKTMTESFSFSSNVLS
In short: as §2

[11] = target: T11, Human neuropeptide Y (NPY-Y1) (Homo sapiens, UniProt P25929); assay: Radioligand binding, human neuropeptide Y NPY-Y1 membranes, FlashPlate, [125I]-PYY; details: compound at 10 μM, [125I]-PYY; for A9: inhibition of radioligand binding: human NPY-Y1 membranes
T11 construct: purchased Perkin Elmer Biosignal
T11 sequence (P25929 1-384): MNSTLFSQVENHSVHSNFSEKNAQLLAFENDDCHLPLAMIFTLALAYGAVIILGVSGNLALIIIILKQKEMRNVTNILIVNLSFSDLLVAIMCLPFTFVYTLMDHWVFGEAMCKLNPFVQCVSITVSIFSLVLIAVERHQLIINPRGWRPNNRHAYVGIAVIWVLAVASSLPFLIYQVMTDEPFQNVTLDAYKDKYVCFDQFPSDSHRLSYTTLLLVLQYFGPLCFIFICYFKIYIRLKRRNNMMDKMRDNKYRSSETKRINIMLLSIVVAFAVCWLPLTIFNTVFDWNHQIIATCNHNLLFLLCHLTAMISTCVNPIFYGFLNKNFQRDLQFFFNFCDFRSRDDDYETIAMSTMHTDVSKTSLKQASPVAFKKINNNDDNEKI
In short: as §1

T1 sequence (P41143 whole entry): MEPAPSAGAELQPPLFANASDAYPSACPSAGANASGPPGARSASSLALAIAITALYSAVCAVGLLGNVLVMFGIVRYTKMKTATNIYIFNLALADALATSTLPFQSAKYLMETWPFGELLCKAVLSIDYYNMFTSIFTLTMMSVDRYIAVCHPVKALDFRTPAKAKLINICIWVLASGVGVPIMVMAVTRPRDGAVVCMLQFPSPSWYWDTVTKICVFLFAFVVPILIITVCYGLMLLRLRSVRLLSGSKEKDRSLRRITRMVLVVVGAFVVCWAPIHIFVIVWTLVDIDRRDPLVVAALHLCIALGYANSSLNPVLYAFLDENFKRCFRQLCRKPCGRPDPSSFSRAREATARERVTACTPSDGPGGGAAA

N=C(N)NCC(=O)N[C@H]1C(OCc2ccc(Cl)cc2)O[C@H](COCc2ccc(Cl)cc2)[C@@H](O)[C@@H]1OCc1ccc2ccccc2c1 (stereo partly shown) [compound 516]
A1: inhibition of radioligand binding, human δ-opioid (DOP) [1]: − (“−” indicates less than 50% inhibition at 10 μM)
A5: inhibition of radioligand binding, human melanocortin (MC5) [2]: + (“+” indicates greater than 50% inhibition at 10 μM)
A3: inhibition of radioligand binding, human melanocortin (MC3) [3]: + (“+” indicates greater than 50% inhibition at 10 μM)
A10: inhibition of radioligand binding, human opioid (ORL1) ([4]; 10 µM): − (“−” indicates less than 50% inhibition at 10 μM)
A2: inhibition of radioligand binding, human κ-opioid (KOP) [5]: − (“−” indicates less than 50% inhibition at 10 μM)
A11: inhibition of radioligand binding, mouse urotensin (mUR2) [6]: − (“−” indicates less than 50% inhibition at 10 μM)
A6: inhibition of radioligand binding, human melanin-concentrating hormone (MCH1) ([7]; [125I]-S36057): + (“+” indicates greater than 50% inhibition at 10 μM)
A4: inhibition of radioligand binding, human melanocortin (MC4) [8]: + (“+” indicates greater than 50% inhibition at 10 μM)
A7: inhibition of radioligand binding, human μ-opioid (MOP) [9]: − (“−” indicates less than 50% inhibition at 10 μM)
A8: inhibition of radioligand binding, human neurokinin (NK1) [10]: + (“+” indicates greater than 50% inhibition at 10 μM)
A9: inhibition of radioligand binding, human neuropeptide Y (NPY-Y1) [11]: − (“−” indicates less than 50% inhibition at 10 μM)

CO[C@H]1[C@H](O)[C@@H](COCc2ccc3ccccc3c2)OC(OCCc2ccccc2)[C@@H]1NC(=O)CCCN (stereo partly shown) [compound 115]
A1 radioligand binding, percentage inhibition [1]: − (“−” indicates less than 50% inhibition at 10 μM)
A5 radioligand binding, percentage inhibition [2]: − (“−” indicates less than 50% inhibition at 10 μM)
A3 radioligand binding, percentage inhibition [3]: − (“−” indicates less than 50% inhibition at 10 μM)
A10 radioligand binding, percentage inhibition [4]: − (“−” indicates less than 50% inhibition at 10 μM)
A2 radioligand binding, percentage inhibition [5]: − (“−” indicates less than 50% inhibition at 10 μM)
A11 radioligand binding, percentage inhibition [6]: − (“−” indicates less than 50% inhibition at 10 μM)
A6 radioligand binding, percentage inhibition ([7]; [125I]-S36057): − (“−” indicates less than 50% inhibition at 10 μM)
A4 radioligand binding, percentage inhibition [8]: − (“−” indicates less than 50% inhibition at 10 μM)
A7 radioligand binding, percentage inhibition [9]: − (“−” indicates less than 50% inhibition at 10 μM)
A8 radioligand binding, percentage inhibition [10]: + (“+” indicates greater than 50% inhibition at 10 μM)
A9 radioligand binding, percentage inhibition [11]: − (“−” indicates less than 50% inhibition at 10 μM)

CO[C@H]1[C@H](O)[C@@H](COCc2ccc(-c3ccccc3)cc2)OC(OCc2cccc(O)c2)[C@@H]1NC(=O)CCNC(=N)N (stereo partly shown) [compound 163]
A1 radioligand binding, percentage inhibition [1]: − (“−” indicates less than 50% inhibition at 10 μM)
A5 radioligand binding, percentage inhibition [2]: + (“+” indicates greater than 50% inhibition at 10 μM)
A3 radioligand binding, percentage inhibition [3]: + (“+” indicates greater than 50% inhibition at 10 μM)
A10 radioligand binding, percentage inhibition [4]: − (“−” indicates less than 50% inhibition at 10 μM)
A2 radioligand binding, percentage inhibition [5]: − (“−” indicates less than 50% inhibition at 10 μM)
A11 radioligand binding, percentage inhibition [6]: − (“−” indicates less than 50% inhibition at 10 μM)
A6 radioligand binding, percentage inhibition ([7]; [125I]-S36057): − (“−” indicates less than 50% inhibition at 10 μM)
A4 radioligand binding, percentage inhibition [8]: + (“+” indicates greater than 50% inhibition at 10 μM)
A7 radioligand binding, percentage inhibition [9]: − (“−” indicates less than 50% inhibition at 10 μM)
A8 radioligand binding, percentage inhibition [10]: + (“+” indicates greater than 50% inhibition at 10 μM)
A9 radioligand binding, percentage inhibition [11]: − (“−” indicates less than 50% inhibition at 10 μM)

N=C(N)NCC(=O)NC1C(OCc2ccc(Cl)cc2)OC(COCc2ccc3ccccc3c2)C(O)C1OCc1ccc(Cl)cc1 (stereo not shown) [compound 417]
A1: inhibition of radioligand binding [1]: − (“−” indicates less than 50% inhibition at 10 μM)
A5: inhibition of radioligand binding [2]: + (“+” indicates greater than 50% inhibition at 10 μM)
A3: inhibition of radioligand binding [3]: + (“+” indicates greater than 50% inhibition at 10 μM)
A10: inhibition of radioligand binding [4]: − (“−” indicates less than 50% inhibition at 10 μM)
A2: inhibition of radioligand binding [5]: − (“−” indicates less than 50% inhibition at 10 μM)
A11: inhibition of radioligand binding [6]: − (“−” indicates less than 50% inhibition at 10 μM)
A6: inhibition of radioligand binding [7]: + (“+” indicates greater than 50% inhibition at 10 μM)
A4: inhibition of radioligand binding [8]: + (“+” indicates greater than 50% inhibition at 10 μM)
A7: inhibition of radioligand binding [9]: − (“−” indicates less than 50% inhibition at 10 μM)
A8: inhibition of radioligand binding [10]: + (“+” indicates greater than 50% inhibition at 10 μM)
A9: inhibition of radioligand binding [11]: − (“−” indicates less than 50% inhibition at 10 μM)

NCCCC(=O)NC1C(OCc2ccc3ccccc3c2)OC(COCc2ccccc2)C(O)C1OCc1ccc(Cl)cc1 (single isomer, unassigned) [compound 457]
A1: inhibition of radioligand binding [1]: − (“−” indicates less than 50% inhibition at 10 μM)
A5: inhibition of radioligand binding ([2]; 10 µM): − (“−” indicates less than 50% inhibition at 10 μM)
A3: inhibition of radioligand binding [3]: − (“−” indicates less than 50% inhibition at 10 μM)
A10: inhibition of radioligand binding ([4]; 10 µM): + (“+” indicates greater than 50% inhibition at 10 μM)
A2: inhibition of radioligand binding [5]: − (“−” indicates less than 50% inhibition at 10 μM)
A11: inhibition of radioligand binding [6]: − (“−” indicates less than 50% inhibition at 10 μM)
A6: inhibition of radioligand binding ([7]; 10 µM): − (“−” indicates less than 50% inhibition at 10 μM)
A4: inhibition of radioligand binding ([8]; 10 µM): − (“−” indicates less than 50% inhibition at 10 μM)
A7: inhibition of radioligand binding ([9]; 10 µM): + (“+” indicates greater than 50% inhibition at 10 μM)
A8: inhibition of radioligand binding [10]: + (“+” indicates greater than 50% inhibition at 10 μM)
A9: inhibition of radioligand binding [11]: − (“−” indicates less than 50% inhibition at 10 μM)
